Laboratory results from ChEMBL document CHEMBL1201862, “PubChem BioAssay data set” (2004).
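Cells were grown in 96-well plates and exposed to each compound for 48 hours at five concentrations; endpoints were interpolated linearly between bracketing concentrations, or set to the highest concentration if not reached. GI50 marks 50% less growth.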 Calls of active or inactive are those of the source. Cut-off read from the data, not from the text of the source: active = GI50 up to about 1.1 µM and inactive = higher. Starred links: 1 amine or outer side, 2 acyl side, 3 side chain; linkers in the order of their positions; H or OH if unused. Positions of bridges follow the written chain, without caps; N, C: chain ends. Non-standard residues stand in square brackets, D forms with d. Residues, ends and D or L forms follow the SMILES beside them. ξ: configuration not given here. X37 = CC[C@H](C)[C@@H](N[*:1])[C@@H](O)CC(=O)O[C@H](C(=O)[C@H](C)C(=O)[*:2])C(C)C; NMeY = CN[C@@H](Cc1ccc(O)cc1)C(=O)O; dNMeL = CN[C@H](CC(C)C)C(=O)O; ξΔPro = O=C(O)C1C=CCN1

Columns and labels:
Experiment in all cases: DTP human tumour cell line panel, 48 h
786-0 = tested on: 786-0
A549 = tested on: A549
EKVX = tested on: EKVX
HCC 2998 = tested on: HCC 2998
HCT-116 = tested on: HCT-116
M14 = tested on: M14
Malme-3M = tested on: Malme-3M
NCI-H522 = tested on: NCI-H522
RXF 393 = tested on: RXF 393
SF-268 = tested on: SF-268
SF-539 = tested on: SF-539
SK-MEL-28 = tested on: SK-MEL-28
SK-MEL-2 = tested on: SK-MEL-2
SK-MEL-5 = tested on: SK-MEL-5
SK-OV-3 = tested on: SK-OV-3
SNB-19 = tested on: SNB-19
SW-620 = tested on: SW-620
TK-10 = tested on: TK-10
U-251 = tested on: U-251
CCRF-CEM = tested on: CCRF-CEM

Row | SMILES | GI50 (786-0) | GI50 (A549) | GI50 (EKVX) | GI50 (HCC 2998) | GI50 (HCT-116) | GI50 (M14) | GI50 (Malme-3M) | GI50 (NCI-H522) | GI50 (RXF 393) | GI50 (SF-268) | GI50 (SF-539) | GI50 (SK-MEL-28) | GI50 (SK-MEL-2) | GI50 (SK-MEL-5) | GI50 (SK-OV-3) | GI50 (SNB-19) | GI50 (SW-620) | GI50 (TK-10) | GI50 (U-251) | GI50 (CCRF-CEM)
1 | Oc1ccc2ccccc2c1OCc1nnc(CCCCCCCCc2nnc(COc3c(O)ccc4ccccc34)n2Nc2ccccc2)n1Nc1ccccc1 | 21.5 µM (inactive) | 10.5 µM (inactive) | 15.4 µM (inactive) | 8.05 µM (inactive) | 10.9 µM (inactive) | 2.56 µM (inactive) | 11.1 µM (inactive) | 11.1 µM (inactive) | 28.5 µM (inactive) | 6.17 µM (inactive) | 6.85 µM (inactive) | 5.14 µM (inactive) | 18.2 µM (inactive) | 0.536 µM (active) | 16.5 µM (inactive) | 20.7 µM (inactive) | 18 µM (inactive) | 22.6 µM (inactive) | 19 µM (inactive) | –
2 | O=[N+]([O-])/C=C(\CS(=O)(=O)c1ccccc1)c1ccc2c(c1)OCO2 | 38.5 µM (inactive) | 37.8 µM (inactive) | > 100 µM (inactive) | > 100 µM (inactive) | 34.8 µM (inactive) | 20.8 µM (inactive) | – | 21.7 µM (inactive) | 64.3 µM (inactive) | 27.2 µM (inactive) | > 100 µM (inactive) | 69.2 µM (inactive) | – | 45.1 µM (inactive) | 33.1 µM (inactive) | – | 75.3 µM (inactive) | – | 88.5 µM (inactive) | 0.56 µM (active)
3 | Cc1c(CCOC=O)c(=O)[nH]c2nncn12 | > 100 µM (inactive) | > 100 µM (inactive) | > 100 µM (inactive) | > 100 µM (inactive) | > 100 µM (inactive) | > 100 µM (inactive) | > 100 µM (inactive) | > 100 µM (inactive) | > 100 µM (inactive) | > 100 µM (inactive) | > 100 µM (inactive) | > 100 µM (inactive) | – | > 100 µM (inactive) | > 100 µM (inactive) | > 100 µM (inactive) | > 100 µM (inactive) | > 100 µM (inactive) | > 100 µM (inactive) | > 100 µM (inactive)
4 | C1=CC=C2NCCCCCCC/N=C3/C=CC=CC=C3NCCCCCCC/N=C\2C=C1 | > 100 µM (inactive) | > 100 µM (inactive) | > 100 µM (inactive) | > 100 µM (inactive) | 39.1 µM (inactive) | 10 µM (inactive) | > 100 µM (inactive) | 52.5 µM (inactive) | 16.9 µM (inactive) | > 100 µM (inactive) | 30.9 µM (inactive) | – | > 100 µM (inactive) | – | 10 µM (inactive) | > 100 µM (inactive) | 79.6 µM (inactive) | – | 10 µM (inactive) | 36.8 µM (inactive)
5 | Cc1cc(C)nc(NS(=O)(=O)c2ccc(Nc3c4ccc(Cl)cc4nc4c(C(=O)NCCN(C)C)cccc34)cc2)n1 | > 100 µM (inactive) | > 100 µM (inactive) | > 100 µM (inactive) | > 100 µM (inactive) | > 100 µM (inactive) | > 100 µM (inactive) | > 100 µM (inactive) | > 100 µM (inactive) | > 100 µM (inactive) | > 100 µM (inactive) | > 100 µM (inactive) | > 100 µM (inactive) | – | > 100 µM (inactive) | > 100 µM (inactive) | > 100 µM (inactive) | > 100 µM (inactive) | > 100 µM (inactive) | > 100 µM (inactive) | > 100 µM (inactive)
6 | O=c1[nH]n(Cc2ccccc2Cl)c2ccccc12 | > 100 µM (inactive) | > 100 µM (inactive) | > 100 µM (inactive) | > 100 µM (inactive) | > 100 µM (inactive) | > 100 µM (inactive) | > 100 µM (inactive) | > 100 µM (inactive) | > 10 µM (inactive) | 40.6 µM (inactive) | > 100 µM (inactive) | > 100 µM (inactive) | > 100 µM (inactive) | > 100 µM (inactive) | – | > 100 µM (inactive) | > 100 µM (inactive) | > 100 µM (inactive) | > 100 µM (inactive) | > 100 µM (inactive)
7 | N=c1oc2ccc([N+](=O)[O-])cc2cc1C(=O)Nc1ccccn1 | 19.2 µM (inactive) | > 100 µM (inactive) | 34.6 µM (inactive) | 91.4 µM (inactive) | 32.4 µM (inactive) | 36.8 µM (inactive) | 21.7 µM (inactive) | 24.5 µM (inactive) | 31.2 µM (inactive) | 34.8 µM (inactive) | 26.2 µM (inactive) | 28.8 µM (inactive) | 16.2 µM (inactive) | 93.5 µM (inactive) | > 100 µM (inactive) | 33.9 µM (inactive) | 70.3 µM (inactive) | – | 45.5 µM (inactive) | 31.5 µM (inactive)
8 | CCCCN(CCCC)C(=O)C(=O)C(C(=O)C(=O)OC)c1nc2ccccc2o1 (configuration not stated) | > 100 µM (inactive) | > 100 µM (inactive) | – | > 100 µM (inactive) | 67.9 µM (inactive) | > 100 µM (inactive) | > 100 µM (inactive) | > 100 µM (inactive) | 17.5 µM (inactive) | > 100 µM (inactive) | > 100 µM (inactive) | > 100 µM (inactive) | > 100 µM (inactive) | 62.7 µM (inactive) | > 100 µM (inactive) | > 100 µM (inactive) | 87.5 µM (inactive) | > 100 µM (inactive) | 90.6 µM (inactive) | 34.8 µM (inactive)
9 | NCCCn1c(Cl)nc2ccccc21 | > 100 µM (inactive) | > 100 µM (inactive) | > 100 µM (inactive) | > 100 µM (inactive) | > 100 µM (inactive) | > 100 µM (inactive) | > 100 µM (inactive) | > 100 µM (inactive) | > 100 µM (inactive) | > 100 µM (inactive) | – | > 100 µM (inactive) | > 100 µM (inactive) | > 100 µM (inactive) | > 100 µM (inactive) | > 100 µM (inactive) | > 100 µM (inactive) | – | > 100 µM (inactive) | > 100 µM (inactive)
10 | COCn1cnc2c(=O)nc(SC)n(-c3ccccc3)c21 | > 100 µM (inactive) | > 100 µM (inactive) | > 100 µM (inactive) | > 100 µM (inactive) | > 100 µM (inactive) | > 100 µM (inactive) | > 100 µM (inactive) | > 100 µM (inactive) | > 100 µM (inactive) | > 100 µM (inactive) | > 100 µM (inactive) | – | > 100 µM (inactive) | > 100 µM (inactive) | > 100 µM (inactive) | > 100 µM (inactive) | > 100 µM (inactive) | > 100 µM (inactive) | – | > 100 µM (inactive)
11 | COCc1c(CO)cnc(C)c1OC1OC(CO)C(O)C(O)C1O (configuration not stated) | > 100 µM (inactive) | > 100 µM (inactive) | > 100 µM (inactive) | > 100 µM (inactive) | > 100 µM (inactive) | > 100 µM (inactive) | > 100 µM (inactive) | > 100 µM (inactive) | > 100 µM (inactive) | > 100 µM (inactive) | > 100 µM (inactive) | > 100 µM (inactive) | > 100 µM (inactive) | > 100 µM (inactive) | > 100 µM (inactive) | > 100 µM (inactive) | > 100 µM (inactive) | – | > 100 µM (inactive) | –
12 | Cn1c2ccccc2c(=O)c2c([N+](=O)[O-])ccc(NCCN)c21 | 6.93 µM (inactive) | 11.9 µM (inactive) | 16.5 µM (inactive) | 7.98 µM (inactive) | 3.73 µM (inactive) | 14 µM (inactive) | 14.9 µM (inactive) | 6.92 µM (inactive) | 9.62 µM (inactive) | 11.3 µM (inactive) | 8.24 µM (inactive) | 15.3 µM (inactive) | 15.3 µM (inactive) | 13.2 µM (inactive) | 15.7 µM (inactive) | 14.1 µM (inactive) | 4.55 µM (inactive) | 14.7 µM (inactive) | 12.8 µM (inactive) | –
13 | CCC1=NC(N/N=C/c2ccco2)=N/C1=C\c1ccco1 | > 100 µM (inactive) | > 100 µM (inactive) | > 100 µM (inactive) | > 100 µM (inactive) | > 100 µM (inactive) | > 100 µM (inactive) | > 100 µM (inactive) | > 100 µM (inactive) | > 100 µM (inactive) | > 100 µM (inactive) | – | > 100 µM (inactive) | > 100 µM (inactive) | > 100 µM (inactive) | > 100 µM (inactive) | > 100 µM (inactive) | > 100 µM (inactive) | > 100 µM (inactive) | > 100 µM (inactive) | > 100 µM (inactive)
14 | C=C1CC(OC)(C(OC)C(=O)N(C)[C@H]2OCO[C@H]3C2O[C@H](C[C@@H](COC)OC)C(C)(C)C3OC)O[C@H](C)[C@@H]1C (some centres not stated) | – | 16 µM (inactive) | 17 µM (inactive) | 10.8 µM (inactive) | 9.44 µM (inactive) | – | – | 11.5 µM (inactive) | 10.6 µM (inactive) | 4.6 µM (inactive) | 14.2 µM (inactive) | 8.18 µM (inactive) | – | > 9.16 µM (inactive) | – | 8.97 µM (inactive) | 14 µM (inactive) | – | 10.6 µM (inactive) | 7.71 µM (inactive)
15 | CC[C@H](C)[C@H]1NC(=O)[C@@H](NC(=O)[C@@H](CC(C)C)N(C)C(=O)C2C=CCN2)[C@@H](C)OC(=O)[C@H](Cc2ccc(OC)cc2)N(C)C(=O)[C@@H]2CCCN2C(=O)[C@H](CC(C)C)NC(=O)[C@@H](C)C(=O)[C@H](C(C)C)OC(=O)C[C@@H]1O (some centres not stated) (H-[ξΔPro][dNMeL]T[X37]LP[NMeY](Me); ester 3-C) | < 0.005 µM (active) | < 0.005 µM (active) | < 0.005 µM (active) | < 0.005 µM (active) | < 0.005 µM (active) | < 0.005 µM (active) | < 0.005 µM (active) | < 0.005 µM (active) | < 0.005 µM (active) | < 0.005 µM (active) | – | < 0.005 µM (active) | < 0.005 µM (active) | < 0.005 µM (active) | < 0.005 µM (active) | < 0.005 µM (active) | < 0.005 µM (active) | < 0.005 µM (active) | < 0.005 µM (active) | < 0.005 µM (active)
